Converted amounts (≈) assume the structure as drawn. Square brackets hold non-standard residues; d marks the D form. Peptide text beside a SMILES is read from it. βAla = NCCC(=O)O
Key:
Staphylococcus aureus [1] = assay: Antibacterial activity against Staphylococcus aureus ATCC 25923 assessed as reduction in bacterial growth measured after 24 hrs by Mueller-Hinton broth based two-fold serial dilution method; type: functional
Escherichia coli [2] = assay: Antibacterial activity against Escherichia coli ATCC 25922 assessed as reduction in bacterial growth measured after 24 hrs by Mueller-Hinton broth based two-fold serial dilution method; type: functional
Klebsiella pneumoniae = assay: Antibacterial activity against Klebsiella pneumoniae ATCC 700603 assessed as reduction in bacterial cell growth incubated for 18 hrs by two fold serial microdilution method; type: functional
Escherichia coli [3] = assay: Antibacterial activity against Escherichia coli ATCC 25922 assessed as reduction in bacterial cell growth incubated for 18 hrs by two fold serial microdilution method; type: functional
[4] = system: Staphylococcus epidermidis; assay: Antibacterial activity against Staphylococcus epidermidis ATCC 12228 assessed as reduction in bacterial cell growth incubated for 18 hrs by two fold serial microdilution method; type: functional
Pseudomonas aeruginosa = assay: Antibacterial activity against Pseudomonas aeruginosa ATCC 27853 assessed as reduction in bacterial cell growth incubated for 18 hrs by two fold serial microdilution method; type: functional
Erythrocyte = assay: Hemolytic activity in mouse Red blood cells incubated for 1 hr; type: toxicity, cell-based
Staphylococcus aureus [5] = assay: Antibacterial activity against Staphylococcus aureus ATCC 25923 assessed as reduction in bacterial cell growth incubated for 18 hrs by two fold serial microdilution method; type: functional
Acinetobacter baumannii = assay: Antibacterial activity against Acinetobacter baumannii ATCC 19606 assessed as inhibition in bacterial growth incubated for 20 to 24 hrs by CLSI based broth microdilution method; type: functional; settings: time 20-24 hrs

| SMILES | MIC (Staphylococcus aureus [1]) | MIC (Escherichia coli [2]) | MIC (Klebsiella pneumoniae) | MIC (Escherichia coli [3]) | MIC [4] | MIC (Pseudomonas aeruginosa) | MIC (Staphylococcus aureus [5]) | MIC (Acinetobacter baumannii) | HC10 (Erythrocyte) |
| --- | --- | --- | --- | --- | --- | --- | --- | --- | --- |
| CC(C)C[C@H](NC(=O)CN)C(=O)N[C@@H](CC(C)C)C(=O)N[C@@H](CCCCN)C(=O)N[C@@H](CCCNC(=N)N)C(N)=O (H-GLLKR-NH2) | > 53.2 µM | 53.2 µM (≈ 31.1 µg/mL) | – | – | – | – | – | – | – |
| CC[C@H](C)[C@H](NC(=O)[C@H](CCCNC(=N)N)NC(=O)[C@H](CCCCN)NC(=O)[C@H](CC(C)C)NC(=O)[C@H](CC(C)C)NC(=O)CN)C(N)=O (H-GLLKRI-NH2) | > 54.6 µM | 54.6 µM (≈ 38.1 µg/mL) | – | – | – | – | – | – | – |
| CC[C@H](C)[C@H](NC(=O)[C@H](CCCNC(=N)N)NC(=O)[C@H](CCCCN)NC(=O)[C@H](CC(C)C)NC(=O)[C@H](CC(C)C)NC(=O)CN)C(=O)NCCC(=O)N[C@H](C(=O)N[C@@H](CC(C)C)C(=O)N[C@@H](CC(C)C)C(N)=O)[C@@H](C)O (H-GLLKRI[βAla]TLL-NH2) | – | – | 128 µM (≈ 140 µg/mL) | 64 µM (≈ 70.2 µg/mL) | 32 µM (≈ 35.1 µg/mL) | 32 µM (≈ 35.1 µg/mL) | 64 µM (≈ 70.2 µg/mL) | > 128 µM | > 256 µM |
| CC(C)C[C@H](NC(=O)[C@H](CC(C)C)NC(=O)[C@@H](NC(=O)[C@H](CCCCN)NC(=O)CCNC(=O)[C@H](CCCNC(=N)N)NC(=O)[C@H](CCCCN)NC(=O)[C@H](CC(C)C)NC(=O)[C@H](CC(C)C)NC(=O)CN)[C@@H](C)O)C(N)=O (H-GLLKR[βAla]KTLL-NH2) | – | – | > 128 µM | > 128 µM | > 128 µM | > 128 µM | > 128 µM | > 128 µM | > 256 µM |
| CC[C@H](C)[C@H](NC(=O)CCNC(=O)[C@H](CCCCN)NC(=O)[C@H](CC(C)C)NC(=O)[C@H](CC(C)C)NC(=O)CN)C(=O)N[C@@H](CCCCN)C(=O)N[C@H](C(=O)N[C@@H](CC(C)C)C(=O)N[C@@H](CC(C)C)C(N)=O)[C@@H](C)O (H-GLLK[βAla]IKTLL-NH2) | – | – | > 128 µM | > 128 µM | 32 µM (≈ 34.2 µg/mL) | 16 µM (≈ 17.1 µg/mL) | > 128 µM | > 128 µM | > 256 µM |
| CC[C@H](C)[C@H](NC(=O)[C@H](CCCNC(=N)N)NC(=O)CCNC(=O)[C@H](CC(C)C)NC(=O)[C@H](CC(C)C)NC(=O)CN)C(=O)N[C@@H](CCCCN)C(=O)N[C@H](C(=O)N[C@@H](CC(C)C)C(=O)N[C@@H](CC(C)C)C(N)=O)[C@@H](C)O (H-GLL[βAla]RIKTLL-NH2) | – | – | > 128 µM | 128 µM (≈ 140 µg/mL) | 64 µM (≈ 70.2 µg/mL) | 32 µM (≈ 35.1 µg/mL) | > 128 µM | > 128 µM | > 256 µM |

More lines, main results first:

| MIC (Staphylococcus aureus [1]) | MIC (Escherichia coli [2]) | MIC (Klebsiella pneumoniae) | MIC (Escherichia coli [3]) | MIC [4] | MIC (Pseudomonas aeruginosa) | MIC (Staphylococcus aureus [5]) | MIC (Acinetobacter baumannii) | SMILES | HC10 (Erythrocyte) |
| --- | --- | --- | --- | --- | --- | --- | --- | --- | --- |
| > 33.9 µM | 33.9 µM (≈ 28 µg/mL) | – | – | – | – | – | – | CC[C@H](C)[C@H](NC(=O)[C@H](CCCNC(=N)N)NC(=O)[C@H](CCCCN)NC(=O)[C@H](CC(C)C)NC(=O)[C@H](CC(C)C)NC(=O)CN)C(=O)N[C@@H](CCCCN)C(N)=O (H-GLLKRIK-NH2) | – |
| > 24.8 µM | 24.8 µM (≈ 23 µg/mL) | – | – | – | – | – | – | CC[C@H](C)[C@H](NC(=O)[C@H](CCCNC(=N)N)NC(=O)[C@H](CCCCN)NC(=O)[C@H](CC(C)C)NC(=O)[C@H](CC(C)C)NC(=O)CN)C(=O)N[C@@H](CCCCN)C(=O)N[C@H](C(N)=O)[C@@H](C)O (H-GLLKRIKT-NH2) | – |
| > 41.4 µM | 41.4 µM (≈ 47.8 µg/mL) | – | – | – | – | – | – | CC[C@H](C)[C@H](NC(=O)[C@H](CCCNC(=N)N)NC(=O)[C@H](CCCCN)NC(=O)[C@H](CC(C)C)NC(=O)[C@H](CC(C)C)NC(=O)CN)C(=O)N[C@@H](CCCCN)C(=O)N[C@H](C(=O)N[C@@H](CC(C)C)C(=O)N[C@@H](CC(C)C)C(=O)O)[C@@H](C)O (H-GLLKRIKTLL-OH) | – |
| – | – | > 128 µM | > 128 µM | > 128 µM | 32 µM (≈ 35.6 µg/mL) | > 128 µM | > 128 µM | CC[C@H](C)[C@H](NC(=O)[C@H](CCCNC(=N)N)NC(=O)[C@H](CCCCN)NC(=O)CCNC(=O)[C@H](CC(C)C)NC(=O)CN)C(=O)N[C@@H](CCCCN)C(=O)N[C@H](C(=O)N[C@@H](CC(C)C)C(=O)N[C@@H](CC(C)C)C(N)=O)[C@@H](C)O (H-GL[βAla]KRIKTLL-NH2) | > 256 µM |
| > 70.2 µM | 70.2 µM (≈ 61.1 µg/mL) | – | – | – | – | – | – | CC[C@H](C)[C@H](NC(=O)[C@H](CCCNC(=N)N)NC(=O)[C@@H](N)CCCCN)C(=O)N[C@@H](CCCCN)C(=O)N[C@H](C(=O)N[C@@H](CC(C)C)C(=O)N[C@@H](CC(C)C)C(N)=O)[C@@H](C)O (H-KRIKTLL-NH2) | – |

Source: ChEMBL document CHEMBL5608163, “Structure modification of anoplin for fighting resistant bacteria” (Eur J Med Chem, 2024)
